Measured values from US9499538B2, “Estrogen receptor modulators and uses thereof” (Seragon Pharmaceuticals, Inc., priority 2012, dated 2016).

Columns and labels:
[1] = tested on: MCF-7 cells; experiment: Breast Cancer Cell Viability Assays (MCF-7, CellTiter-Glo); assay type: cell-based; conditions: 5 days' compound exposure; for IC50: Homo sapiens, MCF7, 120 h
Outline: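 MCF-7 cells (320/well, RPMI with 10% FBS) exposed for 5 days to an eleven-point semilog series, 0.3–0.000003 μM final. Viability read by CellTiter-Glo luminescence, expressed as background-corrected percent of untreated cells.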

[2] = target: T1, ER-α in MCF-7 cells (Homo sapiens, UniProt P03372); experiment: Breast Cancer Cell ER-α In Cell Western Assay (SP1); assay type: cell-based; conditions: 4 or 24 hr post compound addition; for Emax: MCF7, SP1 antibody, read-out: ER-α In Cell Western Assay (SP1) Max Response; for DC50: SP1 antibody, read-out: ER-α In Cell Western Assay (SP1) IC50
T1 construct: endogenous in cells; host or cells: MCF-7
T1 sequence (P03372 1-595): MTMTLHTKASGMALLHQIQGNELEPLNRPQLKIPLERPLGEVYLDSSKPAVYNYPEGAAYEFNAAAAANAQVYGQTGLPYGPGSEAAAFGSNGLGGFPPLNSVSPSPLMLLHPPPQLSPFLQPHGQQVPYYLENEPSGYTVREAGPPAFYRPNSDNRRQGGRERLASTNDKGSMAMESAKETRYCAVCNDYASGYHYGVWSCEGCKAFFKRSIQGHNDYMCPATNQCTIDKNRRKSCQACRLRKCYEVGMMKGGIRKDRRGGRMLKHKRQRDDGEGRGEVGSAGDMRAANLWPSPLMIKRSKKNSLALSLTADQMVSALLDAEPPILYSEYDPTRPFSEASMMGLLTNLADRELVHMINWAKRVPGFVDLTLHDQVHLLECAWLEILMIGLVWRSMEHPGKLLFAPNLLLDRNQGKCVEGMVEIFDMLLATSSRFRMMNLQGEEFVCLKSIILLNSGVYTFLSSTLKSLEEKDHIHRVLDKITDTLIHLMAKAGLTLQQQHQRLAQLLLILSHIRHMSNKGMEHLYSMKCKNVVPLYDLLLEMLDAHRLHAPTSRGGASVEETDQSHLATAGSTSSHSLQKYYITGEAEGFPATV
Outline: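 MCF-7 cells in charcoal-stripped FBS medium, treated with 11-point semilog dilutions (0.3–0.000003 μM final) for 4 or 24 h. Fixed cells immunostained with SP1 antibody (800 nm) and DRAQ5 DNA (700 nm); ER/DNA ratio expressed as % of untreated cells.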

SMILES	IC50 [1] [nM]	Emax [2] [%]	DC50 [2] [nM]	MCF7 Viability Assay Max Response [1]
O=C(O)/C=C/c1ccc(/C(=C(\c2cccc(S(=O)(=O)C(F)(F)F)c2)C2CCC2)c2ccc3[nH]nc(F)c3c2)cc1 [Example 45, (E)-3-(4-((E)-2-Cyclobutyl-1-(3-fluoro-1H-indazol-5-yl)-2-(3-((trifluoromethyl)sulfonyl)phenyl)vinyl)phenyl)acrylic acid]	≤ 100	≥ 40	≤ 100	++ (++ = a single % value ≧ 40%)
Cc1ccccc1/C(=C(\c1ccc(/C=C/C(=O)O)cc1)c1ccc2[nH]ncc2c1C#N)C1CCC1 [Example 11, (E)-3-(4-((E)-1-(4-Cyano-1H-indazol-5-yl)-2-cyclobutyl-2-(o-tolyl)vinyl)phenyl)acrylic acid]	≤ 100	≥ 40	≤ 100	++ (++ = a single % value ≧ 40%)
O=C(O)/C=C/c1ccc(/C(=C(\c2ncccc2F)C2CCC2)c2ccc3scnc3c2)cc1 [Example 99, (E)-3-(4-((E)-1-(Benzo[d]thiazol-5-yl)-2-cyclobutyl-2-(3-fluoropyridin-2-yl)vinyl)phenyl)acrylic acid]	≤ 100	≥ 40	≤ 100	++ (++ = a single % value ≧ 40%)
Cc1cc(C#N)ccc1/C(=C(\c1ccc(/C=C/C(=O)O)cc1)c1ccc2[nH]nc(F)c2c1)C1CCC1 [Example 50, (E)-3-(4-((E)-2-(4-Cyano-2-methylphenyl)-2-cyclobutyl-1-(3-fluoro-1H-indazol-5-yl)vinyl)phenyl)acrylic acid]	≤ 100	≥ 40	≤ 100	++ (++ = a single % value ≧ 40%)
COc1ccc(/C(=C(\c2ccc(/C=C/C(=O)O)cc2)c2ccc3[nH]nc(F)c3c2)C2CC2)c(C#N)c1 [Example 121, (E)-3-(4-((E)-2-(2-Cyano-4-methoxyphenyl)-2-cyclopropyl-1-(3-fluoro-1H-indazol-5-yl)vinyl)phenyl)acrylic acid]	≤ 100	≥ 40	≤ 100	++ (++ = a single % value ≧ 40%)
O=C(O)/C=C/c1ccc(/C(=C(\c2ccccc2Cl)C2CCC2)c2ccc3[nH]nc(F)c3c2)cc1 [Example 124, (E)-3-(4-((E)-2-(2-Chlorophenyl)-2-cyclobutyl-1-(3-fluoro-1H-indazol-5-yl)vinyl)phenyl)acrylic acid]	≤ 100	≥ 40	≤ 100	++ (++ = a single % value ≧ 40%)
N#Cc1ccc(/C(=C(\c2ccc(/C=C/C(=O)O)cc2)c2ccc3[nH]nc(F)c3c2)C2CC2)c(Cl)c1 [Example 119, (E)-3-(4-((E)-2-(2-Chloro-4-cyanophenyl)-2-cyclopropyl-1-(3-fluoro-1H-indazol-5-yl)vinyl)phenyl)acrylic acid]	≤ 100	≥ 40	≤ 100	++ (++ = a single % value ≧ 40%)
CCOc1cc(C)c(/C(=C(\c2ccc(/C=C/C(=O)O)cc2)c2ccc3[nH]nc(F)c3c2)C2CCC2)cn1 [Example 110, (E)-3-(4-((E)-2-Cyclobutyl-2-(6-ethoxy-4-methylpyridin-3-yl)-1-(3-fluoro-1H-indazol-5-yl)vinyl)phenyl)acrylic acid]	≤ 100	≥ 40	≤ 100	++ (++ = a single % value ≧ 40%)
O=C(O)/C=C/c1ccc(/C(=C(\c2ncccc2Cl)C2CCC2)c2ccc3scnc3c2)cc1 [Example 100, (E)-3-(4-((E)-1-(Benzo[d]thiazol-5-yl)-2-(3-chloropyridin-2-yl)-2-cyclobutylvinyl)phenyl)acrylic acid]	≤ 100	≥ 40	≤ 100	++ (++ = a single % value ≧ 40%)
COc1cccc2c(/C(=C(/c3ccncc3Cl)C3CCC3)c3ccc(/C=C/C(=O)O)cc3)coc12 [Example 78, (E)-3-(4-((E)-2-(3-Chloropyridin-4-yl)-2-cyclobutyl-1-(7-methoxybenzofuran-3-yl)vinyl)phenyl)acrylic acid]	≤ 100	≥ 40	≤ 100	++ (++ = a single % value ≧ 40%)

Now from value to compound, other results behind:

IC50 [1] [nM]	Emax [2] [%]	DC50 [2] [nM]	SMILES	MCF7 Viability Assay Max Response [1]
≤ 100	≥ 40	≤ 100	COc1ccc(/C(=C(\c2ccc(/C=C/c3noc(=O)[nH]3)cc2)c2ccc3[nH]nc(F)c3c2)C2CCC2)c(Cl)c1 [Example 276, 3-((E)-4-((E)-2-(2-Chloro-4-methoxyphenyl)-2-cyclobutyl-1-(3-fluoro-1H-indazol-5-yl)vinyl)styryl)-1,2,4-oxadiazol-5(4H)-one]	++ (++ = a single % value ≧ 40%)
> 100	≥ 40	> 100	O=C(O)/C=C/c1ncc(/C(=C(\c2ccccc2)C2CCC2)c2ccc3[nH]nc(F)c3c2)cn1 [Example 162, (E)-3-(5-((Z)-2-Cyclobutyl-1-(3-fluoro-1H-indazol-5-yl)-2-phenylvinyl)pyrimidin-2-yl)acrylic acid]	++ (++ = a single % value ≧ 40%)
≤ 100	≥ 40	≤ 100	O=C(/C=C/c1ccc(/C(=C(\c2ccc(F)cc2Cl)C2CCC2)c2ccc3nccn3c2)cc1)NCCO [Example 187, (E)-3-(4-((E)-2-(2-Chloro-4-fluorophenyl)-2-cyclobutyl-1-(imidazo[1,2-a]pyridin-6-yl)vinyl)phenyl)-N-(2-hydroxyethyl)acrylamide]	++ (++ = a single % value ≧ 40%)
≤ 100	≥ 40	≤ 100	Fc1n[nH]c2ccc(/C(=C(/c3ccccc3)C3CCC3)c3ccc(/C=C/c4cnn[nH]4)cc3)cc12 [Example 286, 5-((E)-1-(4-((E)-2-(1H-1,2,3-Triazol-5-yl)vinyl)phenyl)-2-cyclobutyl-2-phenylvinyl)-3-fluoro-1H-indazole]	++ (++ = a single % value ≧ 40%)
≤ 100	≥ 40	≤ 100	N#Cc1cc(Cl)cnc1/C(=C(\c1ccc(/C=C/C(=O)O)cc1)c1ccc2[nH]nc(F)c2c1)C1CCC1 [Example 249, (E)-3-(4-((E)-2-(5-Chloro-3 cyanopyridin-2-yl)-2-cyclobutyl-1-(3-fluoro-1H-indazol-5-yl)vinyl)phenyl)acrylic acid]	++ (++ = a single % value ≧ 40%)
≤ 100	≥ 40	≤ 100	O=C(/C=C/c1ccc(/C(=C(\c2ccccc2)C2CCC2)c2ccc3[nH]nc(F)c3c2)cc1)NC(CO)CO [Example 189, (E)-3-(4-((E)-2-Cyclobutyl-1-(3-fluoro-1H-indazol-5-yl)-2-phenylvinyl)phenyl)-N-(1,3-dihydroxypropan-2-yl)acrylamide]	++ (++ = a single % value ≧ 40%)
≤ 100	≥ 40	≤ 100	O=C(/C=C/c1ccc(/C(=C(\c2ccc(F)cc2Cl)C2CCC2)c2ccc3[nH]nc(F)c3c2)cc1)Nc1nccs1 [Example 186, (E)-3-(4-((E)-2-(2-Chloro-4-fluorophenyl)-2-cyclobutyl-1-(3-fluoro-1H-indazol-5-yl)vinyl)phenyl)-N-(thiazol-2-yl)acrylamide]	++ (++ = a single % value ≧ 40%)
≤ 100	≥ 40	≤ 100	NNC(=O)/C=C/c1ccc(/C(=C(\c2ccccc2)C2CCC2)c2ccc3[nH]nc(F)c3c2)cc1 [Example 203, (E)-3-(4-((E)-2-Cyclobutyl-1-(3-fluoro-1H-indazol-5-yl)-2-phenylvinyl)phenyl)acrylohydrazide]	++ (++ = a single % value ≧ 40%)
≤ 100	≥ 40	≤ 100	COc1cc(C)ncc1/C(=C(\c1ccc(/C=C/C(=O)O)cc1)c1ccc2[nH]nc(F)c2c1)C1CCC1 [Example 133, (E)-3-(4-((E)-2-Cyclobutyl-1-(3-fluoro-1H-indazol-5-yl)-2-(4-methoxy-6-methylpyridin-3-yl)vinyl)phenyl)acrylic acid]	++ (++ = a single % value ≧ 40%)
≤ 100	≥ 40	≤ 100	N#Cc1cc(Cl)ccc1/C(=C(\c1ccc(/C=C/C(=O)O)cc1)c1ccc2scnc2c1)C1CCC1 [Example 219, (E)-3-(4-((E)-1-(Benzo[d]thiazol-5-yl)-2-(4-chloro-2-cyanophenyl)-2-cyclobutylvinyl)phenyl)acrylic acid]	++ (++ = a single % value ≧ 40%)
